Laboratory results taken from PMC9749936, “Synthesis and structure–activity relationship studies of N-terminal analogues of the lipopeptide antibiotics brevicidine and laterocidine” (RSC Medicinal Chemistry, 2022).
Bridge positions count the residues as written; N and C are the ends. Square brackets hold non-standard residues; d marks the D form. Peptide text beside a SMILES is read from it. * marks the point of attachment. Palmitoyl = CCCCCCCCCCCCCCCC(=O)*; Lauroyl = CCCCCCCCCCCC(=O)*; Decanoyl = CCCCCCCCCC(=O)*; dOrn = NCCC[C@@H](N)C(=O)O; Orn = NCCC[C@H](N)C(=O)O; Hexanoyl = CCCCCC(=O)*; Butyryl = CCCC(=O)*

Legend:
E. coli ATCC 25922 = type: cell-based, Escherichia coli; details: ATCC 25922, 18 h
Method in brief: (§1)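 Broth microdilution MIC per CLSI guidelines in MHB, with compound from DMSO stocks serially diluted in polypropylene plates.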

E. coli ATCC 25922 MCR-1 = type: cell-based, Escherichia coli; details: colistin-resistant strain carrying mcr-1; CLSI broth microdilution in MHB, 18 h at 37 °C, visual inspection; three technical replicates
K. pneumoniae ATCC 13883 = type: cell-based, Klebsiella pneumoniae; details: ATCC 13883, 18 h
Method in brief: as §1

A. baumannii ATCC 17961 = type: cell-based, Acinetobacter baumannii; details: ATCC 17961, 18 h
Method in brief: as §1

P. aeruginosa PAO1 = type: cell-based, Pseudomonas aeruginosa; details: PAO1, 18 h
Method in brief: as §1

S. aureus USA300 = type: cell-based, Staphylococcus aureus; details: USA300, 18 h
Method in brief: as §1

Sheep red blood cells = type: cell-based; details: red cells of sheep, 1 h, 64 μg mL^−1

Row | Compound | Antimicrobial activity (MIC) E. coli ATCC 25922 (E. coli ATCC 25922) | Antimicrobial activity (MIC) E. coli ATCC 25922 MCR-1 (E. coli ATCC 25922 MCR-1) | Antimicrobial activity (MIC) K. pneumoniae ATCC 13883 (K. pneumoniae ATCC 13883) | Antimicrobial activity (MIC) A. baumannii ATCC 17961 (A. baumannii ATCC 17961) | Antimicrobial activity (MIC) P. aeruginosa PAO1 (P. aeruginosa PAO1) | Antimicrobial activity (MIC) S. aureus USA300 (S. aureus USA300) | % Hemolytic activity, sheep red blood cells (Sheep red blood cells)
1 | CC[C@H](C)[C@@H]1NC(=O)[C@@H](NC(=O)[C@H](Cc2c[nH]c3ccccc23)NC(=O)[C@@H](CCCN)NC(=O)CNC(=O)[C@H](CCCN)NC(=O)[C@@H](CCCN)NC(=O)[C@@H](Cc2c[nH]c3ccccc23)NC(=O)[C@@H](Cc2ccc(O)cc2)NC(=O)[C@@H](CO)NC(C)=O)[C@@H](C)OC(=O)CNC(=O)CNC(=O)[C@H](CC(N)=O)NC1=O [Compound 19] (Ac-[dS][dY][dW][dOrn][Orn]G[dOrn]WTINGG; ester 9-C) | >32 µg/mL | >32 µg/mL | >32 µg/mL | >32 µg/mL | 16 µg/mL | >32 µg/mL | 0.2%
2 | CCCC(=O)N[C@H](CO)C(=O)N[C@H](Cc1ccc(O)cc1)C(=O)N[C@H](Cc1c[nH]c2ccccc12)C(=O)N[C@H](CCCN)C(=O)N[C@@H](CCCN)C(=O)NCC(=O)N[C@H](CCCN)C(=O)N[C@@H](Cc1c[nH]c2ccccc12)C(=O)N[C@@H]1C(=O)N[C@@H]([C@@H](C)CC)C(=O)N[C@@H](CC(N)=O)C(=O)NCC(=O)NCC(=O)O[C@@H]1C [Compound 20] (Butyryl-[dS][dY][dW][dOrn][Orn]G[dOrn]WTINGG; ester 9-C) | 16 µg/mL | 32 µg/mL | 32 µg/mL | >32 µg/mL | 8 µg/mL | >32 µg/mL | 0.3%
3 | CCCCCC(=O)N[C@H](CO)C(=O)N[C@H](Cc1ccc(O)cc1)C(=O)N[C@H](Cc1c[nH]c2ccccc12)C(=O)N[C@H](CCCN)C(=O)N[C@@H](CCCN)C(=O)NCC(=O)N[C@H](CCCN)C(=O)N[C@@H](Cc1c[nH]c2ccccc12)C(=O)N[C@@H]1C(=O)N[C@@H]([C@@H](C)CC)C(=O)N[C@@H](CC(N)=O)C(=O)NCC(=O)NCC(=O)O[C@@H]1C [Compound 21] (Hexanoyl-[dS][dY][dW][dOrn][Orn]G[dOrn]WTINGG; ester 9-C) | 4 µg/mL | 8 µg/mL | 8 µg/mL | 16 µg/mL | 4 µg/mL | >32 µg/mL | 0.2%
4 | CCCCCCCCCC(=O)N[C@H](CO)C(=O)N[C@H](Cc1ccc(O)cc1)C(=O)N[C@H](Cc1c[nH]c2ccccc12)C(=O)N[C@H](CCCN)C(=O)N[C@@H](CCCN)C(=O)NCC(=O)N[C@H](CCCN)C(=O)N[C@@H](Cc1c[nH]c2ccccc12)C(=O)N[C@@H]1C(=O)N[C@@H]([C@@H](C)CC)C(=O)N[C@@H](CC(N)=O)C(=O)NCC(=O)NCC(=O)O[C@@H]1C [Compound 23] (Decanoyl-[dS][dY][dW][dOrn][Orn]G[dOrn]WTINGG; ester 9-C) | 2 µg/mL | 2 µg/mL | 2 to 4 µg/mL | 2 µg/mL | 2 µg/mL | >32 µg/mL | 2.1%
5 | CCCCCCCCCCCC(=O)N[C@H](CO)C(=O)N[C@H](Cc1ccc(O)cc1)C(=O)N[C@H](Cc1c[nH]c2ccccc12)C(=O)N[C@H](CCCN)C(=O)N[C@@H](CCCN)C(=O)NCC(=O)N[C@H](CCCN)C(=O)N[C@@H](Cc1c[nH]c2ccccc12)C(=O)N[C@@H]1C(=O)N[C@@H]([C@@H](C)CC)C(=O)N[C@@H](CC(N)=O)C(=O)NCC(=O)NCC(=O)O[C@@H]1C [Compound 24] (Lauroyl-[dS][dY][dW][dOrn][Orn]G[dOrn]WTINGG; ester 9-C) | 4 µg/mL | 4 µg/mL | 8 µg/mL | 2 µg/mL | 8 µg/mL | 32 µg/mL | 21.5%
6 | CCCCCCCCCCCCCCCC(=O)N[C@H](CO)C(=O)N[C@H](Cc1ccc(O)cc1)C(=O)N[C@H](Cc1c[nH]c2ccccc12)C(=O)N[C@H](CCCN)C(=O)N[C@@H](CCCN)C(=O)NCC(=O)N[C@H](CCCN)C(=O)N[C@@H](Cc1c[nH]c2ccccc12)C(=O)N[C@@H]1C(=O)N[C@@H]([C@@H](C)CC)C(=O)N[C@@H](CC(N)=O)C(=O)NCC(=O)NCC(=O)O[C@@H]1C [Compound 26] (Palmitoyl-[dS][dY][dW][dOrn][Orn]G[dOrn]WTINGG; ester 9-C) | 32 µg/mL | 32 µg/mL | >32 µg/mL | 4 µg/mL | 32 µg/mL | 32 µg/mL | 46.1%
